Experimental data published in ChEMBL document CHEMBL5465560, “Selectivity Literature for EUbOPEN Chemogenomic Library” (2024).
Values belong to the compound of their own block, whether it stands above or below them.

Assays:
[1] = molecular target: Serine/threonine-protein kinase 25 (Homo sapiens) (UniProt O00506); test: Selectivity interaction (KinomeScan (DiscoverX)) EUB0000699a STK25; details: at 10 µM
[2] = molecular target: SRSF protein kinase 2 (Homo sapiens) (UniProt P78362); details: at 10 µM
[3] = molecular target: Polycomb protein SUZ12 (Homo sapiens) (UniProt Q15022); test: Selectivity interaction (Methyltransferase screen (radiometric assays, panel of 8 PRMTs, 21 protein lysine methyltransferases, 3 DNA methyltransferases, and one RNA methyltransferase)) EUB0000272b SUZ12
[4] = system: T1, Receptor-type tyrosine-protein kinase FLT3 (Homo sapiens), P36888 [D835Y]; test: (§1) Selectivity interaction (SelectScreen profiling (Invitrogen)) EUB0000607a FLT3; details: at 2 µM
T1 sequence (whole entry): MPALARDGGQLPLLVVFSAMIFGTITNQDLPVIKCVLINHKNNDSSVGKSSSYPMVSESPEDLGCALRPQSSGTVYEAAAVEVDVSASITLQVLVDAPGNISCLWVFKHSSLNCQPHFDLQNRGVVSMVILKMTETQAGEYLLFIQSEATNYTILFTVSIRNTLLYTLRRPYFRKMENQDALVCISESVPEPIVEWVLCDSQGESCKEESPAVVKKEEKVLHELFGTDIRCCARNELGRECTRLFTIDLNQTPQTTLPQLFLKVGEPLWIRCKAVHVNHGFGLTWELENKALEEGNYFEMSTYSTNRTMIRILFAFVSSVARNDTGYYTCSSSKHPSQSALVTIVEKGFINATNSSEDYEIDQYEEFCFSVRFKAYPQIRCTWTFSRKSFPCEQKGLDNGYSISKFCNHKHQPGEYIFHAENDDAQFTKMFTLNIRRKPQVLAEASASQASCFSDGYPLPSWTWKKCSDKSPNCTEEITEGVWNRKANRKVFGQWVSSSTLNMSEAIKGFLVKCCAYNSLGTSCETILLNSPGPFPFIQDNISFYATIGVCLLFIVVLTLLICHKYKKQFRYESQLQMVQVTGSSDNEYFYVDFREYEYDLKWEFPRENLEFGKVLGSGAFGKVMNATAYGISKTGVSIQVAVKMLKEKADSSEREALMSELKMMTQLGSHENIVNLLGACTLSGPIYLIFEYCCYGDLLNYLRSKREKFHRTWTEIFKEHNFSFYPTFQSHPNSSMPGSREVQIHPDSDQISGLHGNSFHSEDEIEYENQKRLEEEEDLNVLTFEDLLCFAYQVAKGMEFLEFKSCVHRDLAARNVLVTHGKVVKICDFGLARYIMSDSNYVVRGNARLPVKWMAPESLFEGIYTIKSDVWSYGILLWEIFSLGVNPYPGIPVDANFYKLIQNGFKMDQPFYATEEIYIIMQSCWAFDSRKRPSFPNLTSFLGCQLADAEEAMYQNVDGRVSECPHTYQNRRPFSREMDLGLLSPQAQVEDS

[5] = molecular target: Receptor-type tyrosine-protein kinase FLT3 (Homo sapiens) (UniProt P36888); test: as §1; details: at 2 µM
[6] = molecular target: Activated CDC42 kinase 1 (Homo sapiens, UniProt Q07912); test: Selectivity interaction (KinomeScan (DiscoverX)) EUB0000607a TNK2; details: at 10 µM
[7] = molecular target: T2, Mitogen-activated protein kinase kinase kinase 2 (Homo sapiens) (UniProt Q9Y2U5); test: Selectivity interaction (ActivX KiNativ screen (kinase selectivity in THP-1 cell lysates)) EUB0000639a MAP3K2; type: subcellular; details: lysate, at 5 µM
T2 sequence (whole entry): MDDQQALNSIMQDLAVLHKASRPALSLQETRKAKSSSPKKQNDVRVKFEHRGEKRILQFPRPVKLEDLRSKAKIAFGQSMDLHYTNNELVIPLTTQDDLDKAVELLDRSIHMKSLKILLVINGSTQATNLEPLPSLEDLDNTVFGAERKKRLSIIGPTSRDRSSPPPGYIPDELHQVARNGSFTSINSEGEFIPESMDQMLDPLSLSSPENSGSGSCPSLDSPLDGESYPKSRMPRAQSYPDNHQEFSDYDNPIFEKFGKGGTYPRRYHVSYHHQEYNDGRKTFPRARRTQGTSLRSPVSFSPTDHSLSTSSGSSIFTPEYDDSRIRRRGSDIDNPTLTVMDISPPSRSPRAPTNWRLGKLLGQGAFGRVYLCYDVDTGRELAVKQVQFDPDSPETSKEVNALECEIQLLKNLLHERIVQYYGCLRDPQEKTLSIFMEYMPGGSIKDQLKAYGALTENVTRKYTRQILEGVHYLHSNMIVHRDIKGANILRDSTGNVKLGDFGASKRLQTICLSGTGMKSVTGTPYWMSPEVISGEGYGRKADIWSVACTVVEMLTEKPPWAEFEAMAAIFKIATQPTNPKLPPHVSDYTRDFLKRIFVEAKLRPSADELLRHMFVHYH

[8] = molecular target: E3 ubiquitin-protein ligase TRIM33 (Homo sapiens) (UniProt Q9UPN9); test: Selectivity interaction (Bromodomain panel (DSF asssay)) EUB0000270b TRIM33
[9] = molecular target: MAP kinase-interacting serine/threonine-protein kinase 1 (Homo sapiens) (UniProt Q9BUB5); test: Selectivity interaction (KinomeScan (DiscoverX)) EUB0000229b MKNK1; details: at 10 µM
[10] = molecular target: T3, Uncharacterized serine/threonine-protein kinase SBK3 (Homo sapiens) (UniProt P0C264); test: Selectivity interaction (KinomeScan (DiscoverX)) EUB0000695a SBK3; details: at 100 nM
T3 sequence (whole entry): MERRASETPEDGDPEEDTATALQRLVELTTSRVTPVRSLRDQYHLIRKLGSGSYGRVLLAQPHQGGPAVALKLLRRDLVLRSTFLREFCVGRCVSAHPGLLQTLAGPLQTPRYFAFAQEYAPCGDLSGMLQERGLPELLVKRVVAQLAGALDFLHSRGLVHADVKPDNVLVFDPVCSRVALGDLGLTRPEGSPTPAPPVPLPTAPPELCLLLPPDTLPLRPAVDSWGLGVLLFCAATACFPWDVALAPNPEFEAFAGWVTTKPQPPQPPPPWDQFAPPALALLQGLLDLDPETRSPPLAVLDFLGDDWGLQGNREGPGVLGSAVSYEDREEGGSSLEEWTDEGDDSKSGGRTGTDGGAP

Polycomb protein SUZ12 (Homo sapiens), sequence (Q15022 whole entry): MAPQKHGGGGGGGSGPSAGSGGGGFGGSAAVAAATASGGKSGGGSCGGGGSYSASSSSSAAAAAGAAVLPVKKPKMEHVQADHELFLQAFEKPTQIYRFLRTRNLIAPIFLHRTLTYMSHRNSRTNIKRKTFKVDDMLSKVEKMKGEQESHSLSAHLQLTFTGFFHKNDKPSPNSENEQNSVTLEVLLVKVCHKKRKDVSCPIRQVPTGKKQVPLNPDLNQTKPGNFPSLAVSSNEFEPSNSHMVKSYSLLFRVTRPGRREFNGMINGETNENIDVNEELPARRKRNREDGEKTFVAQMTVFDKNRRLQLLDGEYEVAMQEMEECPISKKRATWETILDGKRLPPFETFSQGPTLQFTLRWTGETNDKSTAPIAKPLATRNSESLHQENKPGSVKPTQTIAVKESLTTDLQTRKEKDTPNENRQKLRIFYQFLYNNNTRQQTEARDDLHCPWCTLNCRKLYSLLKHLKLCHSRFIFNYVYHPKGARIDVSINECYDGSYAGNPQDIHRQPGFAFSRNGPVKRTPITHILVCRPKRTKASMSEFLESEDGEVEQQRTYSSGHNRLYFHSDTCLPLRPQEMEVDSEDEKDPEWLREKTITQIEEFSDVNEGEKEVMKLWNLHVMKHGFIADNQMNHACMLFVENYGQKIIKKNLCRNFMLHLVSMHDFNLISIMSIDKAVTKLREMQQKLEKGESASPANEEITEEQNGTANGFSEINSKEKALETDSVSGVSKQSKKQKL
MAP kinase-interacting serine/threonine-protein kinase 1 (Homo sapiens), sequence (Q9BUB5 whole entry, looked up): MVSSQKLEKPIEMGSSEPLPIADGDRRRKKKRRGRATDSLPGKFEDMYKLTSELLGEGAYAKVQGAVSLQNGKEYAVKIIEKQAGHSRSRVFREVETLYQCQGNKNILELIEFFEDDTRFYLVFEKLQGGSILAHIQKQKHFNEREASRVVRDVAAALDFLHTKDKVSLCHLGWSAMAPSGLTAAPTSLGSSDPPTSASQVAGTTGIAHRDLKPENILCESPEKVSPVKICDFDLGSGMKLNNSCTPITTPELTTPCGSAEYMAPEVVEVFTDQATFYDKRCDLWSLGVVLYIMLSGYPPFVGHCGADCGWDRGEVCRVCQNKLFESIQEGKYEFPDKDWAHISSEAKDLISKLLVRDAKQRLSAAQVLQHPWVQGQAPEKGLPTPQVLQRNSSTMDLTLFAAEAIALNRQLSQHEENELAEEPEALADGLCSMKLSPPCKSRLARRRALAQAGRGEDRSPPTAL
Activated CDC42 kinase 1, sequence (Q07912 whole entry, looked up): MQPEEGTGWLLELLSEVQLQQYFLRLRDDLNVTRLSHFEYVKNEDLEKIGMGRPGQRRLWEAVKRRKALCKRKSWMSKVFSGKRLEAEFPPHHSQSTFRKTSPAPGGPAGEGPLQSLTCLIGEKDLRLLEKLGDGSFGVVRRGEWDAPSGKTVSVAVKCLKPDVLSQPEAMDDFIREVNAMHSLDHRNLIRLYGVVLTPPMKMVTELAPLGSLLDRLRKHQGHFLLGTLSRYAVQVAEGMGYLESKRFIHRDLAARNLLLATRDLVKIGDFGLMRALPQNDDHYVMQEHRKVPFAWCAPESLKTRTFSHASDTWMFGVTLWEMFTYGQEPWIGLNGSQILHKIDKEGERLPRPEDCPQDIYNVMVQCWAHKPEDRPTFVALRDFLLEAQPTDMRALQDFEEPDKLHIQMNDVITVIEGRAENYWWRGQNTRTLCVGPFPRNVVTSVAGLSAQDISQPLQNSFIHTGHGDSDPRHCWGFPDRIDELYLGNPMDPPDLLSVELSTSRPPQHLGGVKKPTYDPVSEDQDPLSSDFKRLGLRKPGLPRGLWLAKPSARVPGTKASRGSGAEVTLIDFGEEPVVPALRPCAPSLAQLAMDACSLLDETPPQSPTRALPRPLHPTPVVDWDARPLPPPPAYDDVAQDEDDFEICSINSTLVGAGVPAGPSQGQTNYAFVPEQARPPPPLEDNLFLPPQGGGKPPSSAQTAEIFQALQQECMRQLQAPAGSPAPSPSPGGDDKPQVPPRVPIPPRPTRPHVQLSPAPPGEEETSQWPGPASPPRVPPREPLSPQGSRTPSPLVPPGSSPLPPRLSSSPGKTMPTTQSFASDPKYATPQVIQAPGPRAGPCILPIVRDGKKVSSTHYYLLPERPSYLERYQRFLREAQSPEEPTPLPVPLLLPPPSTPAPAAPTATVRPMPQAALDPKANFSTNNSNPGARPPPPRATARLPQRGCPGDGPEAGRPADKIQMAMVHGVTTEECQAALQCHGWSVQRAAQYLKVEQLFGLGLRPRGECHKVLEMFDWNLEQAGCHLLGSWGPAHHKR
E3 ubiquitin-protein ligase TRIM33 (Homo sapiens), sequence (Q9UPN9 whole entry): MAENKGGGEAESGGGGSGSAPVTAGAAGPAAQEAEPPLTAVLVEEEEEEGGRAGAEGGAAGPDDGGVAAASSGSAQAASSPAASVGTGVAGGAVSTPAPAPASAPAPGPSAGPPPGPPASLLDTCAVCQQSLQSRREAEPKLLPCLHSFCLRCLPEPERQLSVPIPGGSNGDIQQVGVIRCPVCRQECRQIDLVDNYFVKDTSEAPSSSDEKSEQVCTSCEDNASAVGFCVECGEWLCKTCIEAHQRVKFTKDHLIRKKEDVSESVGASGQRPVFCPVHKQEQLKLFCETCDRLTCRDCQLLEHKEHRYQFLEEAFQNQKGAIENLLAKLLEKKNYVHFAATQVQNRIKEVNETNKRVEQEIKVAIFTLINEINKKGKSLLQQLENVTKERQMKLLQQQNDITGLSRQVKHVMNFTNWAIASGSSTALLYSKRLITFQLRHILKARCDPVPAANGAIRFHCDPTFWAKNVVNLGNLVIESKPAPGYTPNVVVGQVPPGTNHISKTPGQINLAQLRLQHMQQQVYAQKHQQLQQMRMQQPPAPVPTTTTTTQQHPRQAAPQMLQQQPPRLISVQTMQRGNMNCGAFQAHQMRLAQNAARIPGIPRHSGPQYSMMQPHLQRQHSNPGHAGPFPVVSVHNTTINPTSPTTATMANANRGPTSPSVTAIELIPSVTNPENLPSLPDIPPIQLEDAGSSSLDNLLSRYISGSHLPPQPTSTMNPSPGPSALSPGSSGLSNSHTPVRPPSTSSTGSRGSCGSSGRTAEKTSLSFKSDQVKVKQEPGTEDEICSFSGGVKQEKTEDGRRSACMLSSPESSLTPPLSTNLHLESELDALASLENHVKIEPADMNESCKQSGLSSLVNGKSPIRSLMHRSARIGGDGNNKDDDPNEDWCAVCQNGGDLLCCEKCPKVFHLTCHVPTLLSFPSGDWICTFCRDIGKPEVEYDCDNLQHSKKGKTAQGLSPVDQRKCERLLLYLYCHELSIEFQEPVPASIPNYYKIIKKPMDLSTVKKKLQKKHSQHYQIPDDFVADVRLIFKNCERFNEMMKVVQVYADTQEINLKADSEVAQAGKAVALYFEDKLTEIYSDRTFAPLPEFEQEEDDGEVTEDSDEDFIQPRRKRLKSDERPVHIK
SRSF protein kinase 2 (Homo sapiens), sequence (P78362 whole entry, looked up): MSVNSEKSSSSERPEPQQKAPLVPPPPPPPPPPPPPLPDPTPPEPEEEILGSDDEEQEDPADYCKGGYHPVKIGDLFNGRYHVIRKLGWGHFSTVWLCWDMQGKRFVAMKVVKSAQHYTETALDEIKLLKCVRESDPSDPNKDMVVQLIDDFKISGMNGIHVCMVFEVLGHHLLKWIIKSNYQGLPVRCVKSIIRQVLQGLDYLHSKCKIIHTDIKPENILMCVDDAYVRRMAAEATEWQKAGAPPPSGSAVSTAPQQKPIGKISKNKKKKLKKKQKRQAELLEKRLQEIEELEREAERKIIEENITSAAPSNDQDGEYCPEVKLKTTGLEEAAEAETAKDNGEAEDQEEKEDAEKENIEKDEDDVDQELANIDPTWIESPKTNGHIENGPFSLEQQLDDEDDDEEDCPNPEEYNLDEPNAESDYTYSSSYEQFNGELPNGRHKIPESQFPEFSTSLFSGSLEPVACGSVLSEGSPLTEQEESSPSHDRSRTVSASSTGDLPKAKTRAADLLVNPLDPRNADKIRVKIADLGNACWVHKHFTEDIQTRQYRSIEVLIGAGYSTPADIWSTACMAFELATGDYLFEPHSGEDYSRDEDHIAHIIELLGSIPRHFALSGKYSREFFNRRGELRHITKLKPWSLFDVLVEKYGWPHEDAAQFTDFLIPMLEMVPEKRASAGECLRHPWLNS
Serine/threonine-protein kinase 25 (Homo sapiens), sequence (O00506 whole entry, looked up): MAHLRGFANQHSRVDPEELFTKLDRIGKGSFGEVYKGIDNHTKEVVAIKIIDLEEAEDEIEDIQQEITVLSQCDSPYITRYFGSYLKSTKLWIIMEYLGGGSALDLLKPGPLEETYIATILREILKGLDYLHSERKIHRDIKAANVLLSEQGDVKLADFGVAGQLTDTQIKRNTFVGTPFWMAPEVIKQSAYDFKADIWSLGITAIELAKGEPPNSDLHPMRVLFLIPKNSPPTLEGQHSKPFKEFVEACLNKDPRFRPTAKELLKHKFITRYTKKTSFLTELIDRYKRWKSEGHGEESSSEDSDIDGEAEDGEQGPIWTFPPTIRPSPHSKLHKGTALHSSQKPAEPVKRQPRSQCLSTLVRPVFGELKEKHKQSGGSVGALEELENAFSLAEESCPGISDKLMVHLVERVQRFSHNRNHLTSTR

% of control [1]: 9.4%
% of control [2]: 100%
Structure (SMILES): CCN(CC)CCCCNc1ncc2cc(-c3cc(OC)cc(OC)c3)c(NC(=O)NC(C)(C)C)nc2n1

% of activity ([3]; at 1 µM): 102%
% of activity ([3]; at 10 µM): 97.3%
Structure (SMILES): Cc1cc(C)cc([C@H]2c3cc(C)ccc3NC(=O)CN2C(=O)c2ccc(Br)s2)c1

% of inhibition [7]: 12.6%
Structure (SMILES): CC[C@@H]1[C@H](F)C(=O)N[C@@H]1COc1nccc2cc(C(N)=O)c(OC)cc12 [ZIMLOVISERTIB]

dTM [8]: -0.48 K
Structure (SMILES): Cc1cc(CN)cc(C)c1-c1ncn(C)c1-c1cncn1C

The remaining lines, values behind:

Structure (SMILES): CNC(=O)Nc1ccc(-c2nc(N3CC4CCC(C3)O4)c3cnn(C4CCC5(CC4)OCCO5)c3n2)cc1
% of inhibition [4]: 7%
% of inhibition [5]: 17%
% of control [6]: 84%

Structure (SMILES): COc1cc(N(C)c2ccnc3ccc(C(F)(F)F)cc23)cc(OC)c1OC
% binding [9]: 89%

Structure (SMILES): Cc1cc(F)c(C(=O)Nc2cccc(-c3nncn3C(C)C)n2)cc1-n1cnc(C2CC2)c1
% of control [10]: 85%
